Reference: patent US6872724B2, “Polymorphs with tyrosine kinase activity” (Merck & Co., Inc., priority 2002, dated 2005)

Target: T1, human KDR (Homo sapiens, UniProt P35968)
T1 construct: cloning the cytoplasmic domain of the KDR kinase as an in frame fusion at the carboxy terminus of the GST gene; made in house; host or cells: Spodoptera frugiperda (Sf21) insect cells, baculovirus vector pAcG2T
Experiment: VEGF receptor kinase assay
Type: biochemical
Description: I. VEGF Receptor Kinase Assay
VEGF receptor kinase activity is measured by incorporation of radio-labeled phosphate into polyglutamic acid, tyrosine, 4:1 (pEY) substrate. The phosphorylated pEY product is trapped onto a filter membrane and the incorporation of radio-labeled phosphate quantified by scintillation counting.
VEGF Receptor Kinase The intracellular tyrosine kinase domains of human KDR (Terman, B. I. et al. Oncogene (1991) vol. 6, pp. 1677-1683.) and Flt-1 (Shibuya, M. et al. Oncogene (1990) vol. 5, pp. 519-524) were cloned as glutathione S-transferase (GST) gene fusion proteins. This was accomplished by cloning the cytoplasmic domain of the KDR kinase as an in frame fusion at the carboxy terminus of the GST gene. Soluble recombinant GST-kinase domain fusion proteins were expressed in Spodoptera frugiperda (Sf21) insect cells (Invitrogen) using a baculovirus expression vector (pAcG2T, Pharmingen). […]

T1 sequence (P35968 786-1356 limits assumed): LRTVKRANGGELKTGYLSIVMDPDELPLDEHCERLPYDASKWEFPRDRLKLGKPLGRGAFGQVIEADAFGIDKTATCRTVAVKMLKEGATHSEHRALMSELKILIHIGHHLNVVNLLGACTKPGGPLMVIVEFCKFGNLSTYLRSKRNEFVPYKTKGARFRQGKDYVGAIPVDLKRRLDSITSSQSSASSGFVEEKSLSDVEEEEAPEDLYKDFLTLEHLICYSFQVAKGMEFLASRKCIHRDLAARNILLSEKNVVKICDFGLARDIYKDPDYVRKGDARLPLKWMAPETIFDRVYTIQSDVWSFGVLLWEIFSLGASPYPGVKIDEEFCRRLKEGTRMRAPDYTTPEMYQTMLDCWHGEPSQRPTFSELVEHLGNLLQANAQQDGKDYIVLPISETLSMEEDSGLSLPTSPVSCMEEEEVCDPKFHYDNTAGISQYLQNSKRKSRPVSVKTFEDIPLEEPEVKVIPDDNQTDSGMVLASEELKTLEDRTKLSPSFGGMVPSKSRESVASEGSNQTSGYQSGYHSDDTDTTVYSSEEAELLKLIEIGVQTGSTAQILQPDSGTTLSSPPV

- kinase inhibitory activity: inhibits the kinase KDR
Structure (SMILES): CNC(=O)N1CCN(Cc2ccnc(Nc3ncc(C#N)s3)c2)CC1 [Compound 4-4, 4-[2-(5-cyano-thiazol-2-ylamino)-pyridin-4-ylmethyl]-piperazine-1-carboxylic acid methylamide]
